Patent US20220017486A1, “DOCK1-INHIBITING COMPOUND AND USE THEREOF” (KYUSHU UNIVERSITY, NATIONAL UNIVERSITY CORPORATION, priority 2018, published 2022)

Tests used:
[1] = tested on: mouse lung carcinoma cell line (3LL cells) and mouse pancreatic cancer cell line (PANC02 cells); assay: Inhibition of macropinocytosis in cancer cells (TMR-dextran uptake); format: cell-based; settings: in words, 3LL and PANC02 cells
Procedure: Therefore, this Pharmacological Test evaluated the inhibitory effect of the compounds of the present invention on macropinocytosis in a mouse lung carcinoma cell line (3LL cells) and a mouse pancreatic cancer cell line (PANC02 cells) as a target. Specifically, 150 μL of mouse lung carcinoma cell line (3LL) or mouse pancreatic cancer cell line (PANC02) (4×10^4 cells) was seeded on the glass portion of fibronectin-coated glass-bottom culture dishes. After 16-hour culture at 37° C., the medium was changed to DMEM (serum free), and cultured for another 24 hours to allow the cells to be serum-starved. Subsequently, the medium was changed to 2 mL of serum-free medium containing DMSO alone (control) or DMSO in which each test compound was dissolved, followed by culture for 1 hour for pretreatment. The final concentration of DMSO was adjusted to 0.2 mass %.
DMSO alone (control) or DMSO in which a predetermined concentration of each test compound was dissolved was added in the same manner as above to TMR-dextran (final concentration: 500 μg/mL)-containing DMEM (with 10 mass % FBS), and the thus-obtained medium (180 μL) was added to the cancer cells pretreated as above, followed by incubation at 37° C. for 1 hour. […] The macropinocytosis activity was measured based on the number of TMR-dextran spots per cell. […]

[2] = tested on: mouse lung carcinoma cell line (3LL); assay: Tumor growth of subcutaneously transplanted mouse lung carcinoma cells; format: in vivo, C57BL/6 mice
Procedure: The mouse lung carcinoma cell line (3LL) was suspended in 200 μL of PBS(−), and transplanted (5×10^5 cells per mouse) into the dorsal subcutaneous region of C57BL/6 mice (6 weeks old). To a 6:1:1 mixture of PBS/Cremophor EL/ethanol, RT-22 as a representative of the compounds of the present invention was added to a concentration of 0.25 mg/300 μL, and the resulting mixture was loaded into an SMP-300 micro infusion pump (iPRECIO), which was subcutaneously implanted on the previous day of the transplantation, to perform continuous intravenous administration (n=5 mice). The control group was only administered with an equivalent volume of a solvent (a 6:1:1 mixture of PBS/Cremophor EL/ethanol) (n=6 mice). The transverse and longitudinal diameters of the tumor mass were measured over time for a period of 4 weeks from the start of administration, and the tumor volume (V) was calculated according to the formula: V=π/6x√((transverse diameter×longitudinal diameter)^3).

COC(=O)c1cc(S(=O)(=O)N2CCCC2)cn1CC(=O)c1ccc(-c2cccc(C(F)(F)F)c2)cc1 [RT-22, methyl 1-(2-oxo-2-(3′-(trifluoromethyl)-[1,1′-biphenyl]-4-yl)ethyl)-4-(pyrrolidin-1-yl-sulfonyl)-1H-pyrrole-2-carboxylate]
macropinocytosis activity in cancer cells [1]: inhibitory effect on macropinocytosis activity
tumor size as % of that of the control group ([2]; 3LL s.c. in C57BL/6 mice, continuous intravenous administration, 0.25 mg/300 μL, day 26 to day 29): 64 to 69%
tumor growth inhibition compared with TBOPP ([2]; in words): more effective in inhibiting tumor growth than TBOPP
